Source: patent US20220073592A1, “SYNTHETIC AND RECOMBINANT COLLAGEN PEPTIDES HAVING BIOLOGICAL ACTIVITY” (GELITA AG, priority 2018, published 2022)
Where no end group is shown, it is not given here. [ ]: non-standard residue; d: D form. Hyp = O=C(O)[C@@H]1C[C@@H](O)CN1

How the values were obtained:
Assay type in all cases: cell-based
human dermal fibroblasts [1] = experiment: Sircol collagen assay, collagen synthesis by dermal fibroblasts; conditions: 0.5 mg/ml peptide, three weeks stimulation
Procedure: (§1) The human cells used were obtained from tebu-bio GmbH, Offenbach, Germany. The chondrocytes (Cat. No. 402-05a) or dermal fibroblasts (Cat. No. 106-05a) were first sown in 12-well culture plates and cultured at 37° C., 5% CO2 in Ham's F12 medium, to which 10% fetal calf serum, 20 U/ml penicillin-streptomycin and 50 μg/ml ascorbic acid were added. On every other day, the culture medium was replaced by new culture medium until the cells had reached 80% confluence. […] To investigate the collagen metabolism, the amount of newly synthesized collagen was determined after stimulating the cells with 0.5 mg/ml BCP for three weeks. The synthesized collagen was isolated using the Sircol assay (Article No. 054S5000, 2019, tebu-bio, Offenbach, Germany, or Biocolor Ltd., UK) according to the manufacturer's instructions. In brief, the culture medium was initially discarded and the adherent cell layers were digested with 0.1 mg pepsin solution in 0.5 M acetic acid at 4° C. overnight. The cell suspensions were neutralized by adding 100 μl of an acid-neutralizing reagent. The synthesized collagen was then separated off by adding 200 μl of an isolation and concentration solution with vigorous shaking at 4° C. overnight. After centrifugation (12,000 rpm, 10 min) and discarding the supernatant, the isolated collagen was resuspended in 1 ml of Sircol dye solution. After 30 minutes of shaking and another centrifugation, the collagen pellet was covered with 750 μl of cold acidic solid washing reagent. After another centrifugation, the supernatant was again discarded and the enriched collagen was taken up in 250 μl of alkaline solution. In each case 200 μl of the sample solutions were used for photometric quantification of the synthesized collagen. The absorbance was measured at a wavelength of 492 nm. The amount of collagen synthesized in each case was determined on the basis of standardized collagen solutions.

human chondrocytes [2] = experiment: Sircol collagen assay, collagen synthesis by chondrocytes; conditions: 0.5 mg/ml peptide, three weeks stimulation
Procedure: as §1

human dermal fibroblasts [3] = experiment: Blyscan glycosaminoglycan assay, proteoglycan synthesis by dermal fibroblasts; conditions: 0.5 mg/ml, two weeks stimulation; for increase in collagen synthesis (in the proteoglycan assay, dermal fibroblasts): non-hydroxylated peptides; for increase in the synthesis of proteoglycans by dermal fibroblasts compared to untreated controls: hydroxylated peptides
Procedure: The human cells used were obtained from tebu-bio GmbH, Offenbach, Germany. The chondrocytes (Cat. No. 402-05a) or dermal fibroblasts (Cat. No. 106-05a) were first sown in 12-well culture plates and cultured at 37° C., 5% CO2 in Ham's F12 medium, to which 10% fetal calf serum, 20 U/ml penicillin-streptomycin and 50 μg/ml ascorbic acid were added. On every other day, the culture medium was replaced by new culture medium until the cells had reached 80% confluence. […] The Blyscan glycosaminoglycan assay (Article No. 054B3000, 2019, tebu-bio, Offenbach, Germany, or Biocolor Ltd., UK) was used to determine proteoglycans. The biosynthesis of proteoglycans was determined after stimulating dermal fibroblasts for two weeks. According to the manufacturer's instructions, after discarding the culture medium, the cell layers were covered with 1 ml of papain extraction solution and incubated for three hours at 65° C. with vigorous shaking. The cell suspensions were then centrifuged (10,000 g, 10 min) and the supernatants were collected. After adding 1 ml of Blyscan dye solution and shaking (30 min), the supernatants were centrifuged again (12,000 rpm, 10 min) and then discarded. The isolated proteoglycan pellets were resuspended in 500 μl of dissociation solution. A photometric determination of the synthesized proteoglycan in 200 μl sample solution was carried out at a wavelength of 656 nm in comparison to untreated control experiments.

human chondrocytes [4] = experiment: Blyscan glycosaminoglycan assay, proteoglycan synthesis by chondrocytes; conditions: 0.5 mg/ml; for increase in the synthesis of proteoglycans by chondrocytes compared to untreated controls: non-hydroxylated peptides; for increase in collagen synthesis (in the proteoglycan assay, chondrocytes): hydroxylated peptides

Substance	increase in collagen synthesis by dermal fibroblasts compared to untreated controls (human dermal fibroblasts [1])	increase in collagen synthesis by chondrocytes compared to untreated controls (human chondrocytes [2])	increase in collagen synthesis (in the proteoglycan assay, dermal fibroblasts) (human dermal fibroblasts [3])	increase in the synthesis of proteoglycans by chondrocytes compared to untreated controls (human chondrocytes [4])	increase in the synthesis of proteoglycans by dermal fibroblasts compared to untreated controls (human dermal fibroblasts [3])	increase in collagen synthesis (in the proteoglycan assay, chondrocytes) (human chondrocytes [4])
GAPGKDGVRGL [SEQ ID No. 11, collagen peptide comprising 11 amino acids]	19%	16%	18%	28%	–	–
GAPGKDGVRGLTGPIGPPGPAGA [SEQ ID No. 12, collagen peptide comprising 23 amino acids]	22%	24%	19%	23%	–	–
GAPGKDGVRGLTGPIGPPGPAGAPGDKGEAGPS [SEQ ID No. 2, collagen peptide comprising 33 amino acids]	22%	16%	18%	22%	–	–
GPPGPAGEKGAPGADGPAGAPGTPGPQGIAGQRGV [SEQ ID No. 16, collagen peptide comprising 35 amino acids]	22%	31%	18%	18%	–	–
Gly-Ala-4Hyp-Gly-Lys-Asp-Gly-Val-Arg-Gly-Leu (GA[Hyp]GKDGVRGL) [SEQ ID No. 17, collagen peptide comprising 11 amino acids]	42%	33%	–	–	24%	31%
Gly-Ala-4Hyp-Gly-Lys-Asp-Gly-Val-Arg-Gly-Leu-Thr-Gly-4Hyp-Ile-Gly-4Hyp-4Hyp-Gly-4Hyp-Ala-Gly-Ala-4Hyp-Gly-Asp-Lys-Gly-Glu-Ala-Gly-4Hyp-Ser (GA[Hyp]GKDGVRGLTG[Hyp]IG[Hyp][Hyp]G[Hyp]AGA[Hyp]GDKGEAG[Hyp]S) [SEQ ID No. 25, collagen peptide comprising 33 amino acids]	27%	19%	–	–	23%	–
Gly-Ala-4Hyp-Gly-Lys-Asp-Gly-Val-Arg-Gly-Leu-Thr-Gly-Pro-Ile-Gly-Pro-4Hyp-Gly-Pro-Ala-Gly-Ala (GA[Hyp]GKDGVRGLTGPIGP[Hyp]GPAGA) [SEQ ID No. 18, collagen peptide comprising 23 amino acids]	40%	32%	–	–	31%	25%
Gly-Ala-4Hyp-Gly-Lys-Asp-Gly-Val-Arg-Gly-Leu-Thr-Gly-Pro-Ile-Gly-Pro-4Hyp-Gly-Pro-Ala-Gly-Ala-4Hyp (GA[Hyp]GKDGVRGLTGPIGP[Hyp]GPAGA[Hyp]) [SEQ ID No. 8, collagen peptide comprising 24 amino acids]	37%	24%	–	–	23%	20%
Gly-Ala-4Hyp-Gly-Lys-Asp-Gly-Val-Arg-Gly-Leu-Thr-Gly-Pro-Ile-Gly-Pro-4Hyp-Gly-Pro-Ala-Gly-Ala-4Hyp-Gly-Asp-Lys-Gly-Glu-Ala-Gly-Pro-Ser (GA[Hyp]GKDGVRGLTGPIGP[Hyp]GPAGA[Hyp]GDKGEAGPS) [SEQ ID No. 7, collagen peptide comprising 33 amino acids]	42%	28%	–	–	41%	30%
Gly-Ala-4Hyp-Gly-Lys-Asp-Gly-Val-Arg-Gly-Leu-Thr-Gly-Pro-Ile-Gly-Pro-4Hyp-Gly-Pro-Ala-Gly-Ala-4Hyp-Gly-Asp-Lys-Gly-Glu-Ala-Gly-Pro-Ser-Gly-Pro-Ala-Gly-Pro-Thr-Gly-Ala-Arg-Gly-Ala-4Hyp-Gly-Asp-Arg-Gly-Glu-4Hyp-Gly-Pro-4Hyp-Gly-Pro-Ala-Gly [SEQ ID No. 19]	40%	37%	–	–	29%	18%
Gly-Ala-4Hyp-Gly-Lys-Asp-Gly-Val-Arg-Gly-Leu-Thr-Gly-Pro-Ile-Gly-Pro-4Hyp-Gly-Pro-Ala-Gly-Ala-4Hyp-Gly-Asp-Lys-Gly-Glu-Ala-Gly-Pro-Ser-Gly-Pro-Ala-Gly-Pro-Thr-Gly-Ala-Arg-Gly-Ala-4Hyp-Gly-Asp-Arg-Gly-Glu-4Hyp-Gly-Pro-4Hyp-Gly-Pro-Ala-Gly-Phe-Ala-Gly-Pro-4Hyp-Gly-Ala-Asp-Gly-Gln-4Hyp-Gly-Ala-Lys-Gly-Glu-Pro-Gly-Asp-Ala-Gly-Ala-Lys-Gly-Asp-Ala-Gly-Pro-Pro-Gly-Pro-Ala [SEQ ID No. 20]	37%	–	–	–	29%	15%
Gly-Leu-4Hyp-Gly-Lys-Met-Gly-Val-Phe-Gly-Leu-Thr-Gly-Pro-Ile-Gly-Pro-4Hyp-Gly-Pro-Trp-Gly-Val-4Hyp-Gly-His-Lys-Gly-Tyr-Leu-Gly-Pro-Thr (GL[Hyp]GKMGVFGLTGPIGP[Hyp]GPWGV[Hyp]GHKGYLGPT) [SEQ ID No. 27, collagen peptide comprising 33 amino acids]	27%	–	–	–	26%	–
Gly-Leu-4Hyp-Gly-Lys-Tyr-Gly-Val-His-Gly-Leu-Thr-Gly-Pro-Leu-Gly-Pro-4Hyp-Gly-Pro-Met-Gly-Ile-4Hyp-Gly-Trp-Lys-Gly-Phe-Val-Gly-Pro-Thr (GL[Hyp]GKYGVHGLTGPLGP[Hyp]GPMGI[Hyp]GWKGFVGPT) [SEQ ID No. 28, collagen peptide comprising 33 amino acids]	22%	–	–	–	22%	–
Gly-Pro-4Hyp-Gly-Pro-Leu-Gly-Met-Lys-Gly-Leu-4Hyp-Gly-Val-Trp-Gly-Pro-Phe-Gly-Leu-4Hyp-Gly-Thr-Pro-Gly-Pro-His-Gly-Ile-Thr-Gly-Tyr-Lys-Gly-Val [SEQ ID No. 29]	21%	–	–	–	21%	–
Gly-Pro-4Hyp-Gly-Pro-Val-Gly-Thr-Lys-Gly-Leu-4Hyp-Gly-Phe-Tyr-Gly-Pro-Leu-Gly-Ile-4Hyp-Gly-His-Pro-Gly-Pro-Trp-Gly-Met-Leu-Gly-Thr-Lys-Gly-Val [SEQ ID No. 30]	21%	–	–	–	22%	–
His-His-His-His-His-His-Gly-Ala-4Hyp-Gly-Lys-Asp-Gly-Val-Arg-Gly-Leu-Thr-Gly-Pro-Ile-Gly-Pro-4Hyp-Gly-Pro-Ala-Gly-Ala-4Hyp-Gly-Asp-Lys-Gly-Glu-Ala-Gly-Pro-Ser (HHHHHHGA[Hyp]GKDGVRGLTGPIGP[Hyp]GPAGA[Hyp]GDKGEAGPS) [SEQ ID No. 26, collagen peptide comprising 39 amino acids]	12%	12%	–	–	6%	–
